# Results reported in US6214537A, “Synthetic peptides and mixtures thereof for detecting HIV antibodies” (Biochem Immunosystems, Inc., priority 1988, dated 2001).
# Assays:
# HIV-1 antibodies = conditions: cited from earlier work; for sensitivity: HIV-1 seropositive samples, literature
# HIV-2 antibodies = assay: ELISA, single peptides identifying HIV-2 positive sera; format: binding, human; conditions: 5 tested
# Method: A preferred convenient and classical technique for the determination of antibodies against AIDS virus using a peptide or a peptide mixture of the present invention is an enzyme-linked immunosorbent assay (ELISA). According to this test a peptide or a peptide mixture of the present invention is adsorbed onto the wells of a microtiter plate. The wells are then treated with sera to be tested. After washing, anti-human IgG labeled with peroxidase is added to the wells. The determination of the peroxidase is performed with a corresponding substrate, e.g. with o-phenylene diamine. Also in this procedure the peroxidase can be exchanged by another label, e.g. by a radioactive or fluorescence label.
# The cyclic peptides of the present invention and their mixtures with one or more linear peptides were tested in accordance with the ELISA test described previously against a variety of sera, some of which were confirmed positive and others which were confirmed negative.
# TABLE 4 provides the results of single peptides which were individually evaluated in identifying known HIV-2 positive sera.
# Each well of the microtiter plate is saturated with 100 μl of a solution containing a peptide or mixture of peptides (5 μg/ml) and left overnight. The wells are emptied and washed twice with a washing buffer (Tris, 0.043M; NaCl, 0.5M;thimerosal, 0.01% w/v; Tween 20, 0.05% v/v; pH 7.4). The wells are then saturated with 0.35 ml of washing buffer for 1 hr. at 37° C. and washed once with the same buffer. Serum samples to be analyzed are diluted with specimen buffer (washing buffer plus casein, 0.05% w/v). The wells are rinsed with washing buffer prior to the addition of the diluted serum sample (0.1 ml). These are left to incubate for 1 hr. at room temperature. The wells are then emptied, washed twice rapidly and then once for two minutes with washing buffer. […] The wells are then emptied and washed twice rapidly with washing buffer and then five times in which the buffer was in contact with the well 2 minutes per washing.
# The substrate solution (3,3', 5,5'-tetramethylbenzidine, 8 mg per ml of DMSO) is diluted with 100 volumes 0.1M citrate-acetate buffer, pH 5.6 containing 0.1% v/v of 30% H2 O2 and added to each well (0.1 ml per well). After 10 minutes the contents of each well is treated with 0.1 ml 2N H2 SO4 and the optical density read at 450 nm. All determinations are done in duplicate.
Compound,% Positive Sera correctly Identified (HIV-2 antibodies) [%],other results
"7-mer peptide: SGKLIC with a cysteine residue added to the N-terminus (605-611), Gnann et al.",–,sensitivity (HIV-1 antibodies): 48%
"SGKLICTTAVPWNAS [short synthetic peptide covering residues 606 to 620 of gp41 (HIV-1), U.S. Ser. No. 120,027]",–,"sensitivity (HIV-1 antibodies): 89%; specificity (samples correctly identified) (HIV-1 antibodies; U.S. Ser. No. 120,027): 63/63"
CC[C@H](C)[C@H](NC(=O)[C@H](CCC(=O)O)NC(=O)[C@@H](NC(=O)[C@@H](N)CC(C)C)C(C)C)C(=O)N[C@H](C(=O)N1CCC[C@H]1C(=O)N[C@H](C(=O)NCC(=O)N[C@@H](Cc1ccccc1)C(=O)N[C@@H](C)C(=O)N1CCC[C@H]1C(=O)N[C@H](C(=O)N[C@@H](CCCCN)C(=O)N[C@@H](CCC(=O)O)C(=O)N[C@@H](CCCCN)C(=O)N[C@@H](CCCNC(=N)N)C(=O)N[C@@H](Cc1ccc(O)cc1)C(=O)N[C@@H](CO)C(=O)N[C@@H](CO)C(=O)N[C@@H](C)C(=O)N[C@@H](Cc1c[nH]cn1)C(=O)NCC(=O)N[C@@H](CCCNC(=N)N)C(=O)O)[C@@H](C)O)[C@@H](C)CC)[C@@H](C)O [Peptide 203],100,–
CC[C@H](C)[C@H](NC(=O)[C@H](C)NC(=O)[C@@H](NC(=O)[C@@H](NC(=O)[C@@H](N)CCCNC(=N)N)C(C)C)[C@@H](C)O)C(=O)N[C@@H](CCC(=O)O)C(=O)N[C@@H](CCCCN)C(=O)N[C@@H](Cc1ccc(O)cc1)C(=O)N[C@@H](CC(C)C)C(=O)N[C@@H](CCC(N)=O)C(=O)N[C@@H](CC(=O)O)C(=O)N[C@@H](CCC(N)=O)C(=O)N[C@@H](C)C(=O)N[C@@H](CCCNC(=N)N)C(=O)N[C@@H](CC(C)C)C(=O)N[C@@H](CC(N)=O)C(=O)N[C@@H](CO)C(=O)N[C@@H](Cc1c[nH]c2ccccc12)C(=O)NCC(=O)N[C@H]1CSSC[C@@H](C(=O)N[C@@H](Cc2c[nH]cn2)C(=O)N[C@H](C(=O)N[C@H](C(=O)N[C@H](C(=O)N2CCC[C@H]2C(=O)N[C@@H](Cc2c[nH]c3ccccc23)C(=O)N[C@H](C(=O)N[C@@H](CC(N)=O)C(=O)N[C@@H](CC(=O)O)C(=O)N[C@@H](CO)C(=O)O)C(C)C)C(C)C)[C@@H](C)O)[C@@H](C)O)NC(=O)[C@H](C(C)C)NC(=O)[C@H](CCC(N)=O)NC(=O)[C@H](CCCNC(=N)N)NC(=O)[C@H](Cc2ccccc2)NC(=O)[C@H](C)NC1=O [Peptide 202],100,–
CC[C@H](C)[C@H](NC(=O)[C@H](CCC(=O)O)NC(=O)[C@@H](NC(=O)[C@@H](N)CC(C)C)C(C)C)C(=O)N[C@H](C(=O)N1CCC[C@H]1C(=O)N[C@H](C(=O)NCC(=O)N[C@@H](Cc1ccccc1)C(=O)N[C@@H](C)C(=O)N1CCC[C@H]1C(=O)N[C@H](C(=O)N[C@@H](CCCCN)C(=O)N[C@@H](CCC(=O)O)C(=O)N[C@@H](CCCCN)C(=O)N[C@@H](CCCNC(=N)N)C(=O)O)[C@@H](C)O)[C@@H](C)CC)[C@@H](C)O [Peptide 204],100,–
CC[C@H](C)[C@H](NC(=O)[C@H](C)NC(=O)[C@@H](NC(=O)[C@@H](NC(=O)[C@@H](N)CCCNC(=N)N)C(C)C)[C@@H](C)O)C(=O)N[C@@H](CCC(=O)O)C(=O)N[C@@H](CCCCN)C(=O)N[C@@H](Cc1ccc(O)cc1)C(=O)N[C@@H](CC(C)C)C(=O)N[C@@H](CCC(N)=O)C(=O)N[C@@H](CC(=O)O)C(=O)N[C@@H](CCC(N)=O)C(=O)N[C@@H](C)C(=O)N[C@@H](CCCNC(=N)N)C(=O)N[C@@H](CC(C)C)C(=O)N[C@@H](CC(N)=O)C(=O)N[C@@H](CO)C(=O)N[C@@H](Cc1c[nH]c2ccccc12)C(=O)NCC(=O)N[C@H]1CSSC[C@@H](C(N)=O)NC(=O)[C@H](C(C)C)NC(=O)[C@H](CCC(N)=O)NC(=O)[C@H](CCCNC(=N)N)NC(=O)[C@H](Cc2ccccc2)NC(=O)[C@H](C)NC1=O [Peptide 146],100,–
SGKLIC,–,"immunoreactivity with HIV-1 positive sera (HIV-1 antibodies; 22 HIV-1 positive sera tested, Gnann et al.): not immunoreactive"
CC(C)[C@@H]1NC(=O)[C@H](CCC(N)=O)NC(=O)[C@H](CCCNC(=N)N)NC(=O)[C@H](Cc2ccccc2)NC(=O)[C@H](C)NC(=O)[C@@H](NC(=O)CN)CSSC[C@@H](C(=O)N[C@@H](Cc2c[nH]cn2)C(=O)N[C@H](C(=O)N[C@H](C(=O)N[C@H](C(=O)N2CCC[C@H]2C(=O)N[C@@H](Cc2c[nH]c3ccccc23)C(=O)N[C@H](C(=O)N[C@@H](CC(N)=O)C(=O)N[C@@H](CC(=O)O)C(=O)N[C@@H](CO)C(=O)O)C(C)C)C(C)C)[C@@H](C)O)[C@@H](C)O)NC1=O [Peptide 201],100,–
CC(C)C[C@H](NC(=O)[C@H](CCCNC(=N)N)NC(=O)[C@H](C)NC(=O)[C@H](CCC(N)=O)NC(=O)[C@H](CC(=O)O)NC(=O)[C@@H](N)CCC(N)=O)C(=O)N[C@@H](CC(N)=O)C(=O)N[C@@H](CO)C(=O)N[C@@H](Cc1c[nH]c2ccccc12)C(=O)NCC(=O)N[C@H]1CSSC[C@@H](C(=O)N[C@@H](Cc2c[nH]cn2)C(=O)N[C@H](C(=O)N[C@H](C(=O)N[C@H](C(=O)N2CCC[C@H]2C(=O)N[C@@H](Cc2c[nH]c3ccccc23)C(=O)N[C@H](C(=O)N[C@@H](CC(N)=O)C(=O)N[C@@H](CC(=O)O)C(=O)N[C@@H](CO)C(N)=O)C(C)C)C(C)C)[C@@H](C)O)[C@@H](C)O)NC(=O)[C@H](C(C)C)NC(=O)[C@H](CCC(N)=O)NC(=O)[C@H](CCCNC(=N)N)NC(=O)[C@H](Cc2ccccc2)NC(=O)[C@H](C)NC1=O [Peptide 147],100,–
CC(=O)N[C@@H](CCC(N)=O)C(=O)N[C@@H](CC(=O)O)C(=O)N[C@@H](CCC(N)=O)C(=O)N[C@@H](C)C(=O)N[C@@H](CCCNC(=N)N)C(=O)N[C@@H](CC(C)C)C(=O)N[C@@H](CC(N)=O)C(=O)N[C@@H](CO)C(=O)N[C@@H](Cc1c[nH]c2ccccc12)C(=O)NCC(=O)N[C@H]1CSSC[C@@H](C(N)=O)NC(=O)[C@H](C(C)C)NC(=O)[C@H](CCC(N)=O)NC(=O)[C@H](CCCNC(=N)N)NC(=O)[C@H](Cc2ccccc2)NC(=O)[C@H](C)NC1=O [Peptide 200],100,–
